According to patent US10597366B2, “Aryl ethers and uses thereof” (Peloton Therapeutics, Inc., priority 2013, dated 2020):
Read-outs that look alike come from different tables or passages of the source.

Tests used:
[1] = tested on: HIF-2α HIS TAG-PASB Domain; experiment: HIF-2α Scintillation Proximity Assay (SPA); format: binding; conditions: compounds listed by structure and IUPAC name
Method: The percent inhibition was determined and IC50 values were calculated using the Dotmatics system based on the following equation: % inhibition=[(high control sample)/(high control low control)]×100.

[2] = tested on: 786-O-Hif-Luc cells (luciferase gene driven by multiple HIF responsive elements); experiment: Luciferase Assay; format: cell-based; conditions: 24 h, read-out: Mean Luciferease EC50
Method: A pool of infected cells were then selected against 2 μg/mL of puromycin (P8833, Sigma) for 10 days followed by limited dilution to select single clones.
Each concentration was tested in triplicate. After about 24 hours, luciferase activity was determined using ONE-Glo Luciferase Assay Reagent (E6110, Promega) following the manufacturer's recommended procedure. EC50 were calculated by using Dotmatics software.

[3] = 786-O-Hif-Luc cells, about 24 hours

Row | SMILES | EC50 [2, 3] | also measured
1 | NC(=O)c1cc(F)cc(Oc2ccc(S(=O)(=O)C(F)(F)F)cc2Br)c1 [3-[2-bromo-4-(trifluoromethylsulfonyl)phenoxy]-5-fluoro-benzamide] | – | IC50 [1]: > 100 µM
2 | O=S(=O)(c1ccc(Oc2cccn3cnnc23)c2c1[C@H](O)CC2)C(F)(F)F [(1R)-4-([1,2,4]triazolo[4,3-a]pyridin-8-yloxy)-7-(trifluoromethylsulfonyl)indan-1-ol] | – | IC50 [1]: > 100 µM
3 | NS(=O)(=O)c1cccc(Oc2cc(F)cc(Cl)c2)c1[N+](=O)[O-] [3-(3-chloro-5-fluoro-phenoxy)-2-nitro-benzenesulfonamide] | – | IC50 [1]: > 100 µM
4 | O=C1CCc2c(Oc3cc(F)cc(Cl)c3)cccc21 [4-(3-chloro-5-fluoro-phenoxy)indan-1-one] | – | IC50 [1]: > 100 µM
5 | Cc1c(Oc2cc(F)cc(C#N)c2)ccc(S(=O)(=O)C(F)(F)F)c1C(O)CO (stereo not drawn) [3-[3-(1,2-dihydroxyethyl)-2-methyl-4-(trifluoromethylsulfonyl)phenoxy]-5-fluoro-benzonitrile] | – | IC50 [1]: > 100 µM
6 | CC(C)(C)[S+]([O-])NC1c2c(S(C)(=O)=O)ccc(Oc3cc(F)cc(C#N)c3)c2CC1(F)F (stereo not drawn) [N-[4-(3-cyano-5-fluoro-phenoxy)-2,2-difluoro-7-methylsulfonyl-indan-1-yl]-2-methyl-propane-2-sulfinamide] | – | IC50 [1]: > 100 µM
7 | Cn1cc(Oc2ccc(S(=O)(=O)C(F)(F)F)c3c2CCC3O)cn1 (stereo not drawn) [4-(1-methylpyrazol-4-yl)oxy-7-(trifluoromethylsulfonyl)indan-1-ol] | – | IC50 [1]: > 100 µM
8 | O=S(=O)(c1ccc(Oc2cc(F)cc(Cl)c2)c2c1[C@H](O)CC2)C(F)(F)F [Compound 56, (R)-4-(3-Chloro-5-fluorophenoxy)-7-((trifluoromethyl)sulfonyl)-2,3-dihydro-1H-inden-1-ol] | 0.068 µM | –
9 | CS(=O)(=O)c1ccc(Oc2cc(F)cc(F)c2)c(C(F)F)c1C#N [Compound 93, 2-(Difluoromethyl)-3-(3,5-difluorophenoxy)-6-(methylsulfonyl)benzonitrile] | 0.68 µM | –
10 | N#Cc1cc(F)cc(Oc2ccc(S(=O)(=O)C(F)(F)F)c3c2CC(F)(F)[C@H]3NCCO)c1 [Compound 291, 3-[(1S)-2,2-difluoro-1-(2-hydroxyethylamino)-7-(trifluoromethylsulfonyl)indan-4-yl]oxy-5-fluoro-benzonitrile] | 3.1 µM | –
11 | Cc1cc(Oc2cc(F)cc(C#N)c2)c2c(c1S(C)(=O)=O)C(O)C(F)(F)C2 (stereo not drawn) [Compound 213, 3-((2,2-Difluoro-1-hydroxy-6-methyl-7-(methylsulfonyl)-2,3-dihydro-1H-inden-4-yl)oxy)-5-fluorobenzonitrile] | 0.77 µM | –
12 | CS(=O)(=O)c1ccc(Oc2cc(F)cc(C#N)c2)c2c1[C@H](O)[C@H](F)[C@H]2F [Compound 294, 3-[(1S,2S,3S)-2,3-difluoro-1-hydroxy-7-methylsulfonyl-indan-4-yl]oxy-5-fluoro-benzonitrile] | 1 µM | –
13 | O=S(=O)(c1ccc(Oc2cccc3[nH]ncc23)c2c1C(O)C(F)(F)C2)C(F)(F)F (stereo not drawn) [Compound 243] | 0.92 µM | –
14 | N#Cc1cncc(Oc2ccc(S(=N)(=O)C(F)(F)F)c3c2CC(F)(F)[C@H]3O)c1 (stereo partly drawn) [Compound 314, 5-(((1S)-2,2-difluoro-1-hydroxy-7-(S-(trifluoromethyl)sulfonimidoyl)-2,3-dihydro-1H-inden-4-yl)oxy)nicotinonitrile] | 0.15 µM | –
15 | CS(=O)(=O)c1ccc(Oc2cc(F)cc(C#N)c2)c2c1[C@@H](O)C(F)(F)C2 [Compound 226, (R)-3-((2,2-Difluoro-1-hydroxy-7-(methylsulfonyl)-2,3-dihydro-1H-inden-4-yl)oxy)-5-fluorobenzonitrile] | – | EC50 [2]: 3.5 µM
16 | O=S(=O)(c1ccc(Oc2cc(F)cc(Cl)c2)c(Br)c1CNCc1ccccc1)C(F)(F)F [Compound 110, N-Benzyl-1-(2-bromo-3-(3-chloro-5-fluorophenoxy)-6-((trifluoromethyl)sulfonyl)phenyl)methanamine] | 6.5 µM | –
17 | N#Cc1cncc(Oc2ccc(S(=O)(=O)C(F)F)c3c2CC(F)(F)[C@H]3O)c1 [Compound 27, (S)-5-((7-((Difluoromethyl)sulfonyl)-2,2-difluoro-1-hydroxy-2,3-dihydro-1H-inden-4-yl)oxy)nicotinonitrile] | 0.16 µM | –
18 | C[C@@H]1Cc2c(Oc3cc(F)cc(C#N)c3)ccc(S(C)(=O)=O)c2[C@@H]1O [Compound 301, 3-fluoro-5-(((1R,2R)-1-hydroxy-2-methyl-7-(methylsulfonyl)-2,3-dihydro-1H-inden-4-yl)oxy)benzonitrile] | 2.1 µM | –
19 | CS(=O)(=O)c1ccc(Oc2cc(F)cc(C#N)c2)c2c1[C@H](O)C[C@@H]2F [Compound 295, 3-fluoro-5-[(1R,3S)-3-fluoro-1-hydroxy-7-methylsulfonyl-indan-4-yl]oxy-benzonitrile] | 0.39 µM | –
20 | N#Cc1cc(F)cc(Oc2ccc(S(=O)(=O)C3CCC3)c3c2CC(F)(F)[C@H]3O)c1 [Compound 209, (S)-3-((7-(Cyclobutylsulfonyl)-2,2-difluoro-1-hydroxy-2,3-dihydro-1H-inden-4-yl)oxy)-5-fluorobenzonitrile] | 1.9 µM | –

Row | SMILES | EC50 [2, 3] | also measured
21 | CCS(=O)(=O)c1ccc(Oc2cc(F)cc(C#N)c2)c2c1[C@H](O)C(F)(F)C2 [Compound 206, (S)-3-((7-(Ethylsulfonyl)-2,2-difluoro-1-hydroxy-2,3-dihydro-1H-inden-4-yl)oxy)-5-fluorobenzonitrile] | – | EC50 [2]: 0.062 µM
22 | N#Cc1cccc(Oc2ccc(S(=O)(=O)C(F)F)c(CO)c2Br)c1 [Compound 81, 3-(2-Bromo-4-((difluoromethyl)sulfonyl)-3-(hydroxymethyl)phenoxy)benzonitrile] | 0.85 µM | –
23 | CS(=O)(=O)c1ccc(Oc2cncc(Cl)c2)c2c1[C@H](O)C(F)(F)C2 [Compound 115, (S)-4-((5-Chloropyridin-3-yl)oxy)-2,2-difluoro-7-(methylsulfonyl)-2,3-dihydro-1H-inden-1-ol] | 0.3 µM | –
24 | O[C@@H]1CCc2c(Oc3cc(F)cc(F)c3)ccc(C(F)(F)F)c21 [Compound 58, (R)-4-(3,5-Difluorophenoxy)-7-(trifluoromethyl)-2,3-dihydro-1H-inden-1-ol] | 0.16 µM | –
25 | N=S(=O)(c1ccc(Oc2cc(F)cc(Cl)c2)c(Br)c1Cl)C(F)(F)F (stereo not drawn) [Compound 75, (3-bromo-2-chloro-4-(3-chloro-5-fluorophenoxy)phenyl)(imino)(trifluoromethyl)-λ^6-sulfanone] | 8.8 µM | –
26 | N#Cc1cc(Cl)cc(Oc2ccc(S(=O)(=O)CF)c3c2CC(F)(F)[C@H]3O)c1 [Compound 167, (S)-3-Chloro-5-((2,2-difluoro-7-((fluoromethyl)sulfonyl)-1-hydroxy-2,3-dihydro-1H-inden-4-yl)oxy)benzonitrile] | – | EC50 [2]: 0.016 µM
27 | O=S(=O)(c1ccc(Oc2cc(F)cc(F)c2)c2c1C=CC2)C(F)F [Compound 21, 4-((Difluoromethyl)sulfonyl)-7-(3,5-difluorophenoxy)-1H-indene] | 1.54 µM | –
28 | O=S(=O)(c1ccc(Oc2c(F)ccc3[nH]ncc23)c2c1C(O)C(F)(F)C2)C(F)(F)F (stereo not drawn) [Compound 244, 2,2-Difluoro-4-((5-fluoro-1H-indazol-4-yl)oxy)-7-((trifluoromethyl)sulfonyl)-2,3-dihydro-1H-inden-1-ol] | 1.71 µM | –
29 | O=S(=O)(c1ccc(Oc2cc(Cl)c[n+]([O-])c2)c2c1[C@H](O)C(F)(F)C2)C(F)(F)F [Compound 260, (S)-3-Chloro-5-((2,2-difluoro-1-hydroxy-7-((trifluoromethyl)sulfonyl)-2,3-dihydro-1H-inden-4-yl)oxy)pyridine 1-oxide] | 0.17 µM | –
30 | CCOC(=O)/C=C/c1c(S(=O)(=O)C(F)(F)F)ccc(Oc2cc(F)cc(C#N)c2)c1C [Compound 148, Ethyl (E)-3-(3-(3-cyano-5-fluorophenoxy)-2-methyl-6-((trifluoromethyl)sulfonyl)phenyl)acrylate] | 5.6 µM | –
31 | N#Cc1cc(F)cc(Oc2ccc(S(N)(=O)=O)c3c2[C@@H](F)C(F)(F)[C@H]3O)c1 [Compound 338, (1R,3S)-7-(3-cyano-5-fluoro-phenoxy)-1,2,2-trifluoro-3-hydroxy-indane-4-sulfonamide] | – | EC50 [2]: 0.0061 µM
32 | O=C1CCc2c(Oc3cc(F)cc(Cl)c3)ccc(S(=O)(=O)C(F)F)c21 [Compound 18, 4-(3-chloro-5-fluorophenoxy)-7-((difluoromethyl)sulfonyl)-2,3-dihydro-1H-inden-1-one] | 2.67 µM | –
33 | [2H]C([2H])([2H])S(=O)(=O)c1ccc(Oc2cc(F)cc(C#N)c2)c2c1[C@]([2H])(O)C(F)(F)C2 [Compound 229] | – | EC50 [2]: 0.024 µM
34 | N#CN=S(=O)(CF)c1ccc(Oc2cc(F)cc(C#N)c2)c2c1[C@H](O)C(F)(F)C2 (single isomer, unassigned) [Compound 285] | 0.1 µM | –
35 | N#Cc1cncc(Oc2ccc(S(=O)(=O)C(F)(F)F)c3c2CC(F)(F)[C@H]3O)c1 [Compound 235, (S)-5-((2,2-Difluoro-1-hydroxy-7-((trifluoromethyl)sulfonyl)-2,3-dihydro-1H-inden-4-yl)oxy)nicotinonitrile] | – | EC50 [2]: 0.015 µM
36 | Cc1c(S(C)(=O)=O)ccc(Oc2cc(F)cc(F)c2)c1C#N [Compound 52, 6-(3,5-Difluorophenoxy)-2-methyl-3-(methylsulfonyl)benzonitrile] | 1 µM | –
37 | N#Cc1cc(F)cc(Oc2ccc(S(=O)(=O)C(F)F)c(CO)c2Cl)c1 [Compound 42, 3-(2-Chloro-4-((difluoromethyl)sulfonyl)-3-(hydroxymethyl)phenoxy)-5-fluorobenzonitrile] | 0.45 µM | –
38 | O=S(=O)(c1ccc(Oc2cc(F)cc(F)c2)c2c1CCC2)C(F)F [Compound 20, 4-((Difluoromethyl)sulfonyl)-7-(3,5-difluorophenoxy)-2,3-dihydro-1H-indene] | 1.91 µM | –
39 | N#Cc1cc(F)cc(Oc2ccc(S(N)(=O)=O)c3c2C[C@@H](F)[C@H]3O)c1 [Compound 334, (2R,3S)-7-(3-cyano-5-fluoro-phenoxy)-2-fluoro-3-hydroxy-indane-4-sulfonamide] | 0.22 µM | –
